From US20230365537A1, “POLO LIKE KINASE 4 INHIBITORS” (ORIC Pharmaceuticals, Inc., priority 2021, published 2023)

How the values were obtained:
[1] = target: human recombinant Aurora B (Homo sapiens (Human), UniProt Q96GD4); assay: Aurora B Kinase Biochemical Assay (ADP-Glo); details: ratio of Aurora B IC50 to PLK4 IC50 (selectivity)
Experimental: Activity of human recombinant Aurora B (ThermoFisher, cat #PR9210B) was measured by quantification of adenosine diphosphate (ADP) using the ADP-Glo Kinase Assay Kit (Promega, cat #V9102). […] 5 µL of 20 nM Aurora B in assay buffer (50 mM HEPES, pH 7.5, 0.01% Brij-35, 0.01% BSA, 10 mM MgCl2, 1 mM EGTA, 1 mM DTT) was added to the plates. Test compounds and Aurora B were incubated for 15 minutes at room temperature (RT). […] Reactions were stopped and the remaining ATP depleted by adding 10uL of ADP-Glo reagent (Promega, cat#V912B) and incubating for 40 minutes at RT. The simultaneous conversion of the remaining ADP to ATP and measurement of the newly synthesized ATP was achieved by addition of 20 µL Kinase Detection reagent (Promega, cat #V914B), incubation for 30 min at RT, and luminescence detection using the EnVision plate reader (PerkinElmer). […] The IC50 values reported in Table 2 were determined using four parameter non-linear regression curve fit.

[2] = target: human recombinant Aurora A (Homo sapiens (Human), UniProt O14965); assay: Aurora A Kinase Biochemical Assay (ADP-Glo); details: ratio of Aurora A IC50 to PLK4 IC50 (selectivity)
Experimental: Activity of human recombinant Aurora A (ThermoFisher, cat #PR5935A) was measured by quantification of adenosine diphosphate (ADP) using the ADP-Glo Kinase Assay Kit (Promega, cat #V9102). […] 5 µL of 5.0 nM Aurora A in assay buffer (50 mM HEPES, pH 7.5, 0.01% Brij-35, 0.01% BSA, 10 mM MgCl2, 1 mM EGTA, 1 mM DTT) was added to the plates. Test compounds and Aurora A were incubated for 15 minutes at room temperature (RT). […] Reactions were stopped and the remaining ATP depleted by adding 10uL of ADP-Glo reagent (Promega, cat#V912B) and incubating for 40 minutes at RT. The simultaneous conversion of the remaining ADP to ATP and measurement of the newly synthesized ATP was achieved by addition of 20 µL Kinase Detection reagent (Promega, cat #V914B), incubation for 30 min at RT, and luminescence detection using the EnVision plate reader (PerkinElmer). […] The IC50 values reported in Table 2 were determined using four parameter non-linear regression curve fit.

human recombinant PLK4 = human recombinant PLK4 (Homo sapiens (Human), UniProt O00444); assay: PLK4 Biochemical Assay (ADP-Glo); details: 0.5 nM PLK4, 8.0 µM ATP, 4.7 µM MBP, 6 hours at RT
Experimental: Activity of human recombinant PLK4 (ThermoFisher, cat #PV6396) was measured by quantification of adenosine diphosphate (ADP) using the ADP-Glo Kinase Assay Kit (Promega, cat #V9102). […] 5 µL of 1.0 nM PLK4 protein in assay buffer (50 mM HEPES, pH 7.5, 0.01% Brij-35, 0.01% BSA, 10 mM MgCl2, 1 mM EGTA, 1 mM DTT) was added to the plates. Test compounds and PLK4 were incubated for 15 minutes at room temperature (RT). […] Reactions were stopped and the remaining ATP depleted by adding 10 µL of ADP-Glo reagent (Promega, cat#V912B) and incubating for 40 minutes at RT. The simultaneous conversion of the remaining ADP to ATP and measurement of the newly synthesized ATP was achieved by addition of 20 µL Kinase Detection reagent (Promega, cat #V914B), incubation for 30 min at RT, and luminescence detection using the EnVision plate reader (PerkinElmer). […] The IC50 values reported in Table 2 were determined using four parameter non-linear regression curve fit.

human recombinant PLK4, sequence (O00444 whole entry): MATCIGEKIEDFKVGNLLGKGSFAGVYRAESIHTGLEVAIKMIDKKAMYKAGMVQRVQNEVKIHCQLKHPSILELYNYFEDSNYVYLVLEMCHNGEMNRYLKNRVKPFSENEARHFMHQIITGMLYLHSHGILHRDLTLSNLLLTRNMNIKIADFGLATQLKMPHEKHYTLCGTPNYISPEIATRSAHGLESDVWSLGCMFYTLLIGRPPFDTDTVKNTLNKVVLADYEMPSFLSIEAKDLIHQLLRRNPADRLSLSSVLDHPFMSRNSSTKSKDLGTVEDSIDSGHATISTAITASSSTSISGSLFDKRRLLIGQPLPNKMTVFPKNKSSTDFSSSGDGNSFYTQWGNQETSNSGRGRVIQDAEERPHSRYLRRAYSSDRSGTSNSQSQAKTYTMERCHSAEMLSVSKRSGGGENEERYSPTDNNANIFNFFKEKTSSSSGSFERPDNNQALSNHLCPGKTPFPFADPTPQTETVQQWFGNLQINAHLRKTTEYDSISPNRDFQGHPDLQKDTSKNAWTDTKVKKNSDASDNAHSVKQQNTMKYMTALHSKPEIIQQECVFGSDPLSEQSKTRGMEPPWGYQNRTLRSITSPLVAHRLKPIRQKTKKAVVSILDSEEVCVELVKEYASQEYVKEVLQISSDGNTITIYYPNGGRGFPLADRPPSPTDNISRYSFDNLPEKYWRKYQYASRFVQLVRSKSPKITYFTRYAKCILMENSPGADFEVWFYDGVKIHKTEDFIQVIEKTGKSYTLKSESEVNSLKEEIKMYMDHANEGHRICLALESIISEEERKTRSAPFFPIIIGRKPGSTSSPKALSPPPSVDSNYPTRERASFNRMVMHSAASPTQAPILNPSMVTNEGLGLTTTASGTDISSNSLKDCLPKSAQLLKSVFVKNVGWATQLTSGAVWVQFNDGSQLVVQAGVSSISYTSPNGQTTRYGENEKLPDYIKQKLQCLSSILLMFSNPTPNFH
human recombinant Aurora A, sequence (O14965 whole entry): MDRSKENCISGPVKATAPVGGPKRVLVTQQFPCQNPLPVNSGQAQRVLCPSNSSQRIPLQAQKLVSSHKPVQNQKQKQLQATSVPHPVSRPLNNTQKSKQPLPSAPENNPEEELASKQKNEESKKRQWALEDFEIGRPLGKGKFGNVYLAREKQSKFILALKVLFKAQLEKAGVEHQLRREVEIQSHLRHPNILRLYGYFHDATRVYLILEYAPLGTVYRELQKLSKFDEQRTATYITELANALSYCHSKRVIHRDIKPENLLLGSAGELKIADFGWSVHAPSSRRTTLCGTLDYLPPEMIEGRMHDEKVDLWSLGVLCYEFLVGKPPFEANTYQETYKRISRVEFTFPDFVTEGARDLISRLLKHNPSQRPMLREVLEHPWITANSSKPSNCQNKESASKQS
human recombinant Aurora B, sequence (Q96GD4 whole entry): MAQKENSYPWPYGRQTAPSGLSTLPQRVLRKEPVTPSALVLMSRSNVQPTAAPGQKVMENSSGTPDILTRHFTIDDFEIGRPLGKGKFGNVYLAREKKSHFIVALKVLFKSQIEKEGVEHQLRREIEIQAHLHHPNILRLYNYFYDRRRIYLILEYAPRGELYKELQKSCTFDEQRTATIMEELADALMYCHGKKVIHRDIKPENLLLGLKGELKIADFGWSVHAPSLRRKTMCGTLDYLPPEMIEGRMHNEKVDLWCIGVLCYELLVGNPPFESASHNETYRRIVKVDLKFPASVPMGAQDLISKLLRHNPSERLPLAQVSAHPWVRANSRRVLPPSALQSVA

SMILES | [Aurora B IC50 (nM)]/[PLK4 IC50 (nM)] [1] | [Aurora A IC50 (nM)]/[PLK4 IC50 (nM)] [2] | IC50 (human recombinant PLK4)
COc1ccc2c(c1)[C@]1(C[C@H]1c1ccc3c(Nc4ncncc4C)n[nH]c3c1)C(=O)N2 (racemic) [Example 2, racemic-5′-Methoxy-2-{3-[(5-methylpyrimidin-4-yl)amino]-1H-indazol-6-yl)spiro[cydopropane-1,3′-indol]-2′(1′H)-one] | 15.6544 | 318.03 | 29.3 nM
COc1ccc2c(c1)[C@]1(C[C@H]1c1ccc3c(Nc4ncncc4Cl)n[nH]c3c1)C(=O)N2 (racemic) [Example 3, racemic-2-{3-[(5-Chloropyrimidin-4-yl)amino]-1H-indazol-6-yl}-5′-methoxyspiro[cydopropane-13′-indol]-2′(1′H)-one] | – | – | 9.95 nM
COc1ccc2c(c1)[C@]1(C[C@H]1c1ccc3c(Nc4nc(C)nc5c4C(C)SC5)n[nH]c3c1)C(=O)N2 (single isomer, unassigned) [Example 211] | 218.4107 | 531.9935 | 8.66 nM
COc1ccc2c(c1)[C@]1(C[C@H]1c1ccc3c(Nc4ncncc4C4CC4)n[nH]c3c1)C(=O)N2 [Example 6, (1R,2S)-2-{3-[(5-cyclopropylpyrimidin-4-yl)amino]-1H-indazol-6-yl}-5′-methoxyspiro[cyclopropane-1,3′-indol]-2′(1′H)-one] | – | – | 18.2 nM
COc1ccc2c(c1)[C@@]1(C[C@@H]1c1ccc3c(Nc4ncncc4OC)n[nH]c3c1)C(=O)N2 [Example 8, (IS,2R)-5′-Methoxy-2-{3-[(5-methoxypyrimidin-4-yl)amino]-1H-indazol-6-yl}spiro[cyclopropane-1,3′-indol]-2′(1′H)-one] | 32.99 | 17.61 | 492 nM
COc1ccc2c(c1)[C@]1(C[C@H]1c1ccc3c(Nc4cc(OC)ncn4)n[nH]c3c1)C(=O)N2 [Example 14, (1R,2S)-5′-methoxy-2-{3-[(6-methoxypyrimidin-4-yl)amino]-1H-indazol-6-yl}spiro[cyclopropane-1,3′-indol]-2′(1′H)-one] | 3.866 | 74.16 | 36 nM
COc1ccc2c(c1)[C@]1(C[C@H]1c1ccc3c(Nc4ncnc5c4CCC5)n[nH]c3c1)C(=O)N2 [Example 15, (1R,2S)-2-{3-[(6,7-dihydro-5H-cyclopenta[d]pyrimidin-4-yl)amino]-1H-indazol-6-yl}-5′-methoxyspiro[cyclopropane-1,3′-indol]-2′(1′H)-one] | – | – | 45.7 nM
COc1ccc2c(c1)[C@]1(C[C@H]1c1ccc3c(Nc4cnccc4OC)n[nH]c3c1)C(=O)N2 [Example 18] | – | – | 22.9 nM
COc1ccc2c(c1)[C@]1(C[C@H]1c1ccc3c(Nc4ccncc4OC)n[nH]c3c1)C(=O)N2 [Example 19, (1R,2S)-5′-methoxy-2-{3-[(3-methoxypyridin-4-yl)amino]-1H-indazol-6-yl}spiro[cyclopropane-1,3′-indol]-2′(1′H)-one] | – | – | 24.8 nM
COc1ccc2c(c1)[C@]1(C[C@H]1c1ccc3c(Nc4c(C)nn(C)c4C)n[nH]c3c1)C(=O)N2 [Example 21, (1R,2S)-5′-methoxy-2-{3-[(1,3,5-trimethyl-1H-pyrazol-4-yl)amino]-1H-indazol-6-yl)spiro[cyclopropane-1,3′-indol]-2′(1′H)-one] | – | – | 41.7 nM
COc1ccc2c(c1)[C@]1(C[C@H]1c1ccc3c(Nc4ncncc4C(F)(F)F)n[nH]c3c1)C(=O)N2 [Example 22, (1R,2S)-5′-methoxy-2-(3-{[5-(trifluoromethyl)pyrimidin-4-yl]amino}-1H-indazol-6-yl)spiro[cyclopropane-1,3′-indol]-2′(1′H)-one] | – | – | 39.8 nM

The next compounds have a lower IC50 (human recombinant PLK4) than those just listed; values first:

[Aurora B IC50 (nM)]/[PLK4 IC50 (nM)] [1] | [Aurora A IC50 (nM)]/[PLK4 IC50 (nM)] [2] | IC50 (human recombinant PLK4) | SMILES
492.8831 | 825.7199 | 6.04 nM | COc1ccc2c(c1)[C@]1(C[C@H]1c1ccc3c(Nc4cc(C(C)O)cnc4OC)n[nH]c3c1)C(=O)N2 (mixture of isomers) [Example 271, (1R,2S)-2-(3-{[5-(1-hydroxyethyl)-2-methoxypyridin-3-yl]amino}-1H-indazol-6-yl)-5′-methoxyspiro[cyclopropane-1,3′-indol]-2′(1′H)-one]
– | – | 3.5 nM | COc1ccc2c(c1)[C@]1(C[C@H]1c1ccc3c(Nc4ncncc4OC)n[nH]c3c1)C(=O)N2 (racemic) [Example 1, racemic-5′-Methoxy-2-{3-[(5-methoxypyrimidin-4-yl)amino]-1H-indazol-6-yl}spiro[cyclopropane-1,3′-indol]-2′(1′H)-one]
19.96 | 893.3126 | 3.21 nM | COc1ccc2c(c1)[C@]1(C[C@H]1c1ccc3c(Nc4nccc5c4OC[C@H]5CO)n[nH]c3c1)C(=O)N2 (single isomer, unassigned) [Example 34]
523.3415 | 906.0197 | 3.26 nM | COc1ccc2c(c1)[C@]1(C[C@H]1c1ccc3c(Nc4nc(C5CCOC5)ncc4OC)n[nH]c3c1)C(=O)N2 (single isomer, unassigned) [Example 200]
– | – | 2.08 nM | COc1ccc2c(c1)[C@]1(C[C@H]1c1ccc3c(Nc4cccc5c4OCC5O)n[nH]c3c1)C(=O)N2 (stereo in doubt) [Example 27, 2-{3-[(3-hydroxy-2,3-dihydro-1-benzofuran-7-yl)amino]-1H-indazol-6-yl)-5′-methoxyspiro[cyclopropane-1,3′-indol]-2′(1′H)-one]
– | – | 0.375 nM | COc1ccc2c(c1)[C@]1(C[C@H]1c1ccc3c(Nc4cccc5c4OC[C@H]5O)n[nH]c3c1)C(=O)N2 (stereo in doubt) [Example 28]
11.45 | 465.4867 | 3.96 nM | COc1ccc2c(c1)[C@]1(C[C@H]1c1ccc3c(Nc4ncncc4OC)n[nH]c3c1)C(=O)N2 [Example 4, (1R,2S)-5′-Methoxy-2-{3-[(5-methoxypyrimidin-4-yl)amino]-1H-indazol-6-yl}spiro[cyclopropane-1,3′-indol]-2′(1′H)-one]
– | – | 2.18 nM | CCOc1cncnc1Nc1n[nH]c2cc([C@@H]3C[C@@]34C(=O)Nc3ccc(OC)cc34)ccc12 [Example 5, (1R,2S)-2-[3-[(5-ethoxypyrimidin-4-yl)amino]-1H-indazol-6-yl]-5′-methoxy-spiro[cyclopropane-1,3′-indoline]-2′-one]
47.27 | 693.5732 | 4.56 nM | COc1ccc2c(c1)[C@]1(C[C@H]1c1ccc3c(Nc4ncncc4Cl)n[nH]c3c1)C(=O)N2 [Example 7]
10.3 | 667.5585 | 2.99 nM | COc1ccc2c(c1)[C@]1(C[C@H]1c1ccc3c(Nc4nccnc4OC)n[nH]c3c1)C(=O)N2 [Example 13, (1R,2S)-5′-methoxy-2-{3-[(3-methoxypyrazin-2-yl)amino)-1H-indazol-6-yl}spiro[cyclopropane-1,3′-indol]-2′(1′H)-one]
– | – | 2.25 nM | COc1ccc2c(c1)[C@]1(C[C@H]1c1ccc3c(Nc4cccnc4OC)n[nH]c3c1)C(=O)N2 [Example 24]
– | – | 3.85 nM | COc1ccc2c(c1)[C@]1(C[C@H]1c1ccc3c(Nc4cccc5ccoc45)n[nH]c3c1)C(=O)N2 [Example 26]
– | – | 5.97 nM | COc1ccc2c(c1)[C@]1(C[C@H]1c1ccc3c(Nc4cccc5c4OC[C@@H]5O)n[nH]c3c1)C(=O)N2 [Example 29, (1R,2S)-2-(3-{[(3R)-3-hydroxy-2,3-dihydro-1-benzofuran-7-yl]amino)-1H-indazol-6-yl)-5′-methoxyspiro[cyclopropane-1,3′-indol]-2′(1′H)-one]
